Values quoted from earlier work, collected in article PMC7109127 (British Journal of Cancer, 2020).

Tests used:
HCC [1] = settings: first-line HCC; cited from earlier work
[2] = cited from earlier work
advanced HCC = tested on: advanced HCC; set-up: method as in PMID 18650514; settings: cited from earlier work
[3] = tested on: metastatic renal cell carcinoma; settings: TIVO-1; cited from earlier work
[4] = TIVO-1; cited from earlier work
[5] = first-line HCC; cited from earlier work
HCC [6] = tested on: HCC; set-up: method as in PMID 30665869, PMID 26095784; settings: selective VEGFR-2 inhibition; cited from earlier work

Compound: COc1cc2nccc(Oc3ccc(NC(=O)NC4CC4)c(Cl)c3)c2cc1C(N)=O [lenvatinib]
- ORR (RECIST 1.1) (HCC [1]): 18.8%
- patients progression free at 6 months (HCC [1]): 55%

Compound: CNC(=O)c1cc(Oc2ccc(NC(=O)Nc3ccc(Cl)c(C(F)(F)F)c3)cc2)ccn1 [sorafenib]
- half-life [2]: 25 to 48 h
- ORR (RECIST 1.1) (HCC [1]): 6.5%
- patients progression free at 6 months (HCC [1]): 35%
- objective responses (advanced HCC): ≤ 2%
- overall response rate (ORR) [3]: 23.3%
- progression-free survival (PFS) [3]: 9.1 months
- diarrhoea incidence [4]: 33%
- hypertension incidence [4]: 34%
- palmar–plantar erythrodysesthesia incidence [4]: 54%
- Fatigue, all grades [5]: 25%
- Fatigue, grade 3–4 [5]: 4%

Compound: ramucirumab
- objective responses in HCC (HCC [6]): does not usually lead to objective responses
